Experiment [1] deals with RT4 bladder cancer cell line. Briefly: Cell proliferation assay (methylene blue, 96-well), RT4. In kind it is cell-based. The note with it: Homo sapiens; RT4 bladder cancer cells, 72 h, average of several independent assays; read-out: IC50 (nM) ± SD, proliferation inhibition. How it is done:
(§1) The bladder carcinoma cell lines are grown in MEM EBS (Minimum Essential Medium with Earls Basal Salts) (Amimed, Allschwil, Switzerland, #1-31F0-I) supplemented with 1% L-glutamine (Amimed #5-10K00-H), 1% MEM NEAA (MEM Non-essential Amino Acid Solution) (Amimed #5-13K00-H), 1% Na- pyruvate (Amimed #5-60F00-H) and 10% FCS (Gibco, Invitrogen AG, Basel, Schweiz, #10082-147).
(§2) In detail, FGF-R1, FGF-R2 and FGF-R4 expression is determined by Western Blot using specific antibodies, respectively: sc-121 (Santa Cruz), sc-122 (Santa Cruz) and sc-124 (Santa Cruz). […] Cell proliferation is measured in 96-well plates. […] Upon addition of 200 μl/well HCl (3%) and incubation for 30 min at RT on a plate shaker, the Optical Density (OD) at 650 nm is measured. The concentration of inhibitor 1 providing 50% of proliferation inhibition is calculated using Excel module.
(§3) The FGF-R dependency as well as sensitivity to inhibitor 1 and/or to inhibitor 2 for each of the indicated cell lines is characterized as indicated above. The effect of inhibitor 1 and inhibitor 2 on cell viability is assessed by means of proliferation assays; the IC50s shown are the average IC50s of several independent assays (their number given by N).

Experiment [2] deals with OPM2 multiple myeloma cell line. Kind of experiment: Cell proliferation assay (methylene blue, 96-well), OPM2. It is filed as cell-based. The note with it: Homo sapiens, OPM-2; OPM2 multiple myeloma cells, 72 h; read-out: IC50 (nM) ± SD, proliferation inhibition. The text has this: (§4) OPM2 and KMS11: human multiple myeloma (MM) cell lines derived from end-stage disease patients. OPM2 cells are obtained from DSMZ ACC #50.
(§5) KMS11 cells are provide by Dr. T Otsuki, Kawasaki Medical School, Okayama, Japan. Both cell lines are reported to carry the t(4,14) translocation and express a mutated, constitutively activated form of FGF-R3. In particular, OPM2 cells harbour a mutation in the ATP binding pocket in the kinase domain, which results in a change of lysine in position 650 into glutamic acid. KMS11 cells harbor a mutation in the extracellular domain of the receptor changing tyrosine in position 373 into cysteine. Both cell lines are grown in RPMI 1640 (Gibco #21875) supplemented with 1% L-glutamine (Amimed #5-10K00-H) and 20% FCS (Gibco #10082-147).
(§6) In detail, FGF-R1, FGF-R2 and FGF-R4 expression is determined by Western Blot using specific antibodies, respectively: sc-121 (Santa Cruz), sc-122 (Santa Cruz) and sc-124 (Santa Cruz). […] Cell proliferation is measured in 96-well plates. […] Upon addition of 200 μl/well HCl (3%) and incubation for 30 min at RT on a plate shaker, the Optical Density (OD) at 650 nm is measured. The concentration of inhibitor 1 providing 50% of proliferation inhibition is calculated using Excel module. […]

The subject of experiment [3] is HT1197 bladder carcinoma cell line. Briefly: Cell proliferation assay (methylene blue, 96-well), HT1197. It is filed as cell-based, human. The note with it: for sensitivity of growth to inhibition (in words): HT1197 cells; for IC50: Homo sapiens, HT1197 bladder cancer cells, 72 h, read-out: IC50 (nM) ± SD, proliferation inhibition. How it is done: HT1197: human urinary bladder transitional cell carcinoma established from a recurrent bladder carcinoma, histological grade G4, stage T2 (Masters et al. 1986, loc. cit.). Cells are obtained from ATCC # CRL-1473.
as §1
(§7) In detail, FGF-R1, FGF-R2 and FGF-R4 expression is determined by Western Blot using specific antibodies, respectively: sc-121 (Santa Cruz), sc-122 (Santa Cruz) and sc-124 (Santa Cruz). To determine the expression of FGF-R3, first FGF-R3 is immunoprecipitated with the antibody F-0425 from Sigma, and the immunocomplexes are subjected to Western Blot using the antibody F-0425 from Sigma. Cell proliferation is measured in 96-well plates. The cells are seeded in a volume of 100 μl per well in the growth media given above. For RT 112, RT4 and SUM52 8500 cells/well are seeded, for VMCUB1, J82, HT1197 and KMS11, 5000 cells/well are seeded, for OPM2 30000 cells/well are seeded. Medium containing FGF-R inhibitor 1, FGFR inhibitor 2 or (as control) DMSO is added 24 h after seeding, respectively. After 72 h, cells are fixed by addition of 25 μl/well glutaraldehyde (20%) for 10 min at room temperature (RT). Cells are then washed twice with 200 μl/well H2O and 100 μl Methylene Blue (0.05%) are added. After incubation for 10 min at RT, cells are washed 3× with 200 μl/well H2O. Upon addition of 200 μl/well HCl (3%) and incubation for 30 min at RT on a plate shaker, the Optical Density (OD) at 650 nm is measured. The concentration of inhibitor 1 providing 50% of proliferation inhibition is calculated using Excel module.
as §3

For experiment [4], the system named is KMS11 multiple myeloma cell line. Kind of experiment: Cell proliferation assay (methylene blue, 96-well), KMS11. In kind it is cell-based. The note with it: Homo sapiens, KMS-11; KMS11 multiple myeloma cells, 72 h; read-out: IC50 (nM) ± SD, proliferation inhibition.
Excerpt: as §4, §5, §6

Experiment [5] has as its system J82 bladder carcinoma cell line. Kind of experiment: Cell proliferation assay (methylene blue, 96-well), J82. In kind it is cell-based, human. The note with it: for IC50: Homo sapiens, J82 bladder cancer cells, 72 h, read-out: IC50 (nM) ± SD, proliferation inhibition; for sensitivity of growth to inhibition (in words): J82 cells. How it is done: J82: human urinary bladder transitional cell carcinoma established from a primary bladder carcinoma, histological grade G3, stage T3 (Masters et al. 1986, loc. cit.). Cells are obtained from ATCC # HTB-1.
as §1, §7, §3

Experiment [6] has as its system FRS-2 tyrosine phosphorylation in RT4 cells. Briefly: FRS-2 tyrosine phosphorylation after FGF-R inhibitor treatment (IP/Western Blot), RT4 cells. It is filed as cell-based, human. The note with it: RT4 cells treated with inhibitor, FIG. 2A. How it is done:
FIG. 2: Comparative analysis of FRS-2 phosphorylation following treatment with the FGF-R inhibitor PD173074 (inhibitor 1, see Methods in Example 1) in the RT4 cells, in the case of RT112 with TKI258/CHIR258, 4-Amino-5-fluoro-3[6-(4-methyl-1-piperazinyl)-1H-benzimidazol-2-yl]-2(1H)-quinolinone (inhibitor 2, see Methods in Example 1). The cell lines indicated are treated as shown. FRS-2 tyrosine phosphorylation is determined by immunoprecipitation with a specific FRS-2 antibody followed by […] Western Blotting, or by western blot using an antibody that detects phosphorylated Tyr196 on FRS2. […] Inhib. 1=inhibitor 1, Inhib. 2=inhibitor 2, DMSO=dimethyl sulfoxide.
(§8) Cells are solubilized in 1% Triton extraction buffer containing protease and phosphatase inhibitors (“lysis buffer” 50 mM Tris pH 7.5, 150 mM NaCl, 1 mM EGTA, 5 mM EDTA, 1% Triton, 2 mM NaVanadate, 1 mM PMSF and protease inhibition cocktail from Hoffmann-LaRoche, Basel, Switzerland, #1187358001). Lysates are clarified by centrifugation at 12000×g for 15 min and protein concentration is determined using the DC Protein Assay Reagents (Bio Rad, Bio-Rad Laboratories, Inc., Hercules, Calif., USA, #500-0116) (an assay based on the method of Bradford, M., see Anal. Biochem., 72, 248 (1976), employing Coomassie Blue®, ICI) and a Bovine Serum Albumin (BSA) standard. […]
(A western blot detects proteins with antibodies after separation by electrophoresis.)

The subject of experiment [7] is VMCUB1 bladder carcinoma cell line. Briefly: Cell proliferation assay (methylene blue, 96-well), VMCUB1. It is filed as cell-based, human. The note with it: for IC50: Homo sapiens, VM-CUB-1, VMCUB1 bladder cancer cells, 72 h, read-out: IC50 (nM) ± SD, proliferation inhibition; for sensitivity of growth to inhibition (in words): VMCUB1 cells. How it is done:
VMCUB-1: human urinary bladder transitional cell carcinoma established from a primary bladder carcinoma. Stage and histological grade are not recorded (Masters et al. 1986, loc. cit.). Cells are obtained from DSMZ ACC #400.
as §1, §7, §3

Experiment [8] deals with RT112 bladder cancer cell line. Briefly: Cell proliferation assay (methylene blue, 96-well), RT112. It is filed as cell-based. The note with it: Homo sapiens, RT-112; RT112 bladder cancer cells, 72 h, average of several independent assays; read-out: IC50 (nM) ± SD, proliferation inhibition. How it is done: as §1, §2, §3
Experiment [9] concerns FRS-2 tyrosine phosphorylation in RT112 cells. Briefly: FRS-2 tyrosine phosphorylation after FGF-R inhibitor treatment (IP/Western Blot), RT112 cells. The note with it: RT112 cells treated with inhibitor, FIG. 2B. In kind it is cell-based, human.
Description: The cell lines indicated are treated as shown. FRS-2 tyrosine phosphorylation is determined by immunoprecipitation with a specific FRS-2 antibody followed by anti-FRS-2 Western Blotting, or by western blot using an antibody that detects phosphorylated Tyr196 on FRS2.
Immunocomplexes are collected with protein A- or protein G-sepharose (Sigma, # P-9424; Sigma, # P-3296) and washed 3 × with lysis buffer. Bound proteins are released by boiling in 2 × sample buffer (20% SDS, 20% glycerol, 160 mM Tris pH 6.8, 4% β-mercaptoethanol, 0.04% bromo-phenol blue). […]
Experiment [10] concerns SUM52 breast carcinoma cell line. Briefly: Cell proliferation assay (methylene blue, 96-well), SUM52. The note with it: Homo sapiens; SUM52 breast cancer cells, 72 h; read-out: IC50 (nM) ± SD, proliferation inhibition. In kind it is cell-based. The method, then: as §7, with “After 72 h, cells are fixed by addition of 25 μl/well glutaraldehyde (20%) for 10 min at room temperature (RT). Cells are then washed twice with 200 μl/well H2O and 100 μl Methylene Blue (0.05%) are added. After incubation for 10 min at RT, cells are washed 3× with 200 μl/well H2O.” left out
as §3

The test system of experiment [11] is FRS-2 tyrosine phosphorylation in RT112 cells. Briefly: FRS-2 tyrosine phosphorylation upon growth factor stimulation (IP/Western Blot), RT112 cells. In kind it is cell-based, human. The note with it: aFGF/heparin 50 ng/ml//5 μg/ml, EGF 10 ng/ml, insulin 5 μg/ml, FIG. 3. How it is done:
(§9) FIG. 3: Comparative analysis of FRS-2 tyrosine phosphorylation upon growth factor stimulation: The bladder cancer cell lines RT112 and […] are stimulated with aFGF/heparin (50 ng/ml//5 μg/ml), EGF (10 ng/ml) (from R & D Systems, Inc., Minneapolis, Minn., USA; #236-EG-200) or insulin (5 μg/ml) (Sigma, Sigma-Aldrich, Inc., St. Louis, Mo., USA; #1882). Cells are lysed and total protein lysates are recovered. FRS-2 tyrosine phosphorylation is determined by immunoprecipitation followed by anti-pTyr antibody Western Blotting, using antibodies mentioned in Table 1 of Example 1. […] Equal amount of MAPK protein is monitored by Western Blotting with α-MAPK (MAPK in Table 1 in Example 1). […]
as §8

For experiment [12], the system named is MAPK activation in RT112 cells. Kind of experiment: MAPK activation upon growth factor stimulation (anti-phosphoMAPK Western Blot), RT112 cells. It is filed as cell-based, human. The note with it: EGF 10 ng/ml, insulin 5 μg/ml, FIG. 3. How it is done:
as §9, §8

The text below walks through data of patent publication US20120315648A1, “METHOD OF IDENTIFICATION OF CELLS THAT SHOW SENSITIVITY TO MODULATION OF SIGNALING MEDIATED BY A FIBROBLAST GROWTH FACTOR RECEPTOR OR A VARIANT THEREOF” (priority 2007, published 2012).

Entries after “also recorded” stand apart in the source; their conditions may differ.

Take `CCN(CC)CCCCNc1ncc2cc(-c3cc(OC)cc(OC)c3)c(NC(=O)NC(C)(C)C)nc2n1` [Inhibitor 1, PD173074]: the IC50 was 28 ± 8 nM in experiment [1]; 148 ± 31 nM in experiment [2]; more than 3000 nM in [3]; 50 ± 14 nM in experiment [4]; more than 3000 nM in experiment [5]; more than 3000 nM in [7]. Besides, the IC50 in experiment [8] was 14 ± 3 nM. Moreover, the “sensitivity of growth to inhibition (in words)” value in [3], in [5] and in experiment [7] was “resistant to inhibition” in each case. Besides, the “effect on FRS-2 tyrosine phosphorylation” value in experiment [6] was “abolish FRS-2 tyrosine phosphorylation; also recorded: completely inhibits FRS-2 phosphorylation”.
For the molecule `CN1CCN(c2ccc3nc(-c4c(N)c5c(F)cccc5[nH]c4=O)[nH]c3c2)CC1` [Inhibitor 2, 4-Amino-5-fluoro-3[6-(4-methyl-1-piperazinyl)-1H-benzimidazol-2-yl]-2(1H)-quinolinone], the IC50 in [1] is 134 ± 58 nM; in experiment [3], more than 3000 nM; in experiment [4], 93 nM; in experiment [5] it was more than 3000 nM; in [10] it was 190 ± 58 nM; in [7] it was more than 2000 nM. Besides, the IC50 in experiment [8] is 60 ± 20 nM. Besides, the “effect on FRS-2 tyrosine phosphorylation” value in experiment [9] was “abolish FRS-2 tyrosine phosphorylation”. Further, the “sensitivity of growth to inhibition (in words)” value in [3], in [5] and in experiment [7] was “resistant to inhibition” each time.
For insulin, in experiment [11], the “induction of FRS-2 tyrosine phosphorylation” value is on record as “fail to induce phospho-FRS-2”. For the same molecule, the “MAPK activation (pMAPK)” value in experiment [12] was “activate MAPK”.
